In experiment [1] the target is T1, human GCGR (Homo sapiens, UniProt P47871).
T1 construct: expressed in transfected cells; growth medium holds Blasticidin and Hygromycin
As to the kind of experiment: cAMP activity assay at the Glucagon receptor (GCGR). Format: cell-based. The following applies: for hGCGR/hGLP1R (hTone): ratio of GCGR EC50 to GLP1R EC50. The procedure, abridged: (§1)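 Peptides serially diluted from DMSO (10 points) and added to frozen-stock cells bearing human GLP1R (10,000 cells/well) or GCGR (30,000 cells/well), 1 h at RT, dark. EC50 by four-parameter logistic fit of HitHunter cAMPXS luminescence, read following overnight RT incubation.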

For experiment [2], the target named is T2, human GLP1R (Homo sapiens, UniProt P43220).
T2 construct: expressed in transfected cells; growth medium holds Blasticidin and Hygromycin
As to the kind of experiment: cAMP activity assay at the GLP-1 receptor (GLP1R). In kind it is cell-based. The procedure, abridged:
as §1

[3] abbreviates: cells expressing human GCGR, cAMP production, buffer with or without 20% human serum (not stated which), read-out: GCGR EC50 human.
Where [4] appears, read: summary statement: EC50 at each of the glucagon and GLP-1 receptors, read-out: EC50 at the glucagon receptor.
[5] abbreviates: summary statement: EC50 at each of the glucagon and GLP-1 receptors, read-out: EC50 at the GLP-1 receptor.
[6] abbreviates: cells expressing human GLP1R, cAMP production, buffer with or without 20% human serum (not stated which), read-out: GLP1R EC50 human.

One may read the EC50 as the concentration needed to bring the measured effect to its halfway point.

Where two headings read alike, the source gives them in different places. Numbered stars: 1 amine (or outer) side, 2 acyl side, 3 side chain; on linkers, the order of the positions; unused ones are H or OH. Square brackets hold non-standard residues; d marks the D form. Side chains are listed from the residue outwards. Peptide text beside a SMILES is read from it. * marks the point of attachment. Phe(4-CH2NH2) = NCc1ccc(C[C@H](N)C(=O)O)cc1; C18 diacid = O=C(O)CCCCCCCCCCCCCCCCC(=O)*; αMeW = C[C@](N)(Cc1c[nH]c2ccccc12)C(=O)O; C16 diacid = O=C(O)CCCCCCCCCCCCCCC(=O)*; γGlu = O=C(O)[C@H](CCC(=O)[*:2])N[*:1]; Met(O2) = CS(=O)(=O)CC[C@H](N)C(=O)O; AEEA = NCCOCCOCC(=O)O; Aib = CC(C)(N)C(=O)O

T1 sequence (P47871 26-477): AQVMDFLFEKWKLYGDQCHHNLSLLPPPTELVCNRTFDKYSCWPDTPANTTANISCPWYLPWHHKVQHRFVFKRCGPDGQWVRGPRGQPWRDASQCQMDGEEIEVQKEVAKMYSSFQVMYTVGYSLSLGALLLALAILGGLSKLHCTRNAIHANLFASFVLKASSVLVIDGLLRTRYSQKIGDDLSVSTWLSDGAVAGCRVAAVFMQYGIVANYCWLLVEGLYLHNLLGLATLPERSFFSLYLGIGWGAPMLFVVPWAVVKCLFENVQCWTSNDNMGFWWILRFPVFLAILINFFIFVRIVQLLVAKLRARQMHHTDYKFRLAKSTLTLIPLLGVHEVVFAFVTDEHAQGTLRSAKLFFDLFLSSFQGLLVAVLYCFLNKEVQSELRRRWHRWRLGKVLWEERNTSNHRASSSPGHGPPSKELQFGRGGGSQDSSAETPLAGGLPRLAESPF
T2 sequence (P43220 24-463): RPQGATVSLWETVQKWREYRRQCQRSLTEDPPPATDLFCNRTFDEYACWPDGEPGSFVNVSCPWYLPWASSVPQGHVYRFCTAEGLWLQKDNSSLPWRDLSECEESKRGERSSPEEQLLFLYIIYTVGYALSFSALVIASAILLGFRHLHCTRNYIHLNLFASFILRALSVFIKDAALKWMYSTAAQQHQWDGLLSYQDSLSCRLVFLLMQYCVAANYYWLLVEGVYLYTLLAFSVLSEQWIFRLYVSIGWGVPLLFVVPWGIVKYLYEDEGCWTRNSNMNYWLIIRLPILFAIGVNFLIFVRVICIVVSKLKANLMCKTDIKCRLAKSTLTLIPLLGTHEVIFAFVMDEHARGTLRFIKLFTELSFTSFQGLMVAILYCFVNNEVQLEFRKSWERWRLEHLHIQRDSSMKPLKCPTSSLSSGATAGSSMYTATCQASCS

In the case of `CC(C)C[C@H](NC(=O)[C@H](Cc1ccc(O)cc1)NC(=O)[C@H](CCCCN)NC(=O)[C@H](CO)NC(=O)[C@H](Cc1ccc(O)cc1)NC(=O)[C@H](CC(=O)O)NC(=O)[C@H](CO)NC(=O)[C@@H](NC(=O)[C@H](Cc1ccccc1)NC(=O)[C@@H](NC(=O)CNC(=O)[C@H](CCC(N)=O)NC(=O)C(C)(C)NC(=O)[C@@H](N)Cc1c[nH]cn1)[C@@H](C)O)[C@@H](C)O)C(=O)N[C@@H](CC(=O)O)C(=O)N[C@@H](C)C(=O)N[C@@H](CCCNC(=N)N)C(=O)N[C@@H](C)C(=O)N[C@@H](C)C(=O)N[C@@H](CCCCNC(=O)COCCOCCNC(=O)COCCOCCNC(=O)CC[C@H](NC(=O)CCCCCCCCCCCCCCCCC(=O)O)C(=O)O)C(=O)N[C@@H](CC(=O)O)C(=O)N[C@@H](Cc1ccccc1)C(=O)N[C@H](C(=O)N[C@@H](CCC(N)=O)C(=O)N[C@@H](Cc1c[nH]c2ccccc12)C(=O)N[C@@H](CC(C)C)C(=O)N[C@@H](CCS(C)(=O)=O)C(=O)N[C@@H](CCC(=O)O)C(=O)N[C@H](C(N)=O)[C@@H](C)O)C(C)C` [TP672] (H-H[Aib]QGTFTSDYSKYLDARAAK([AEEA-AEEA-γGlu-C18 diacid])DFVQWL[Met(O2)]ET-NH2; N-terminus assumed), the EC50 was 0.35 nM in experiment [1] (setting [3]), below 5 nM in experiment [1] (setting [4]) and below 5 nM in experiment [2] (setting [5]). The “hGCGR/hGLP1R (hTone)” value in experiment [1] was found to be 0.7.
As for `CC(C)C[C@H](NC(=O)[C@H](Cc1ccc(O)cc1)NC(=O)[C@H](CCCCN)NC(=O)[C@H](CO)NC(=O)[C@H](Cc1ccc(O)cc1)NC(=O)[C@H](CC(=O)O)NC(=O)[C@H](CO)NC(=O)[C@@H](NC(=O)[C@H](Cc1ccccc1)NC(=O)[C@@H](NC(=O)CNC(=O)[C@H](CCC(N)=O)NC(=O)C(C)(C)NC(=O)[C@@H](N)Cc1c[nH]cn1)[C@@H](C)O)[C@@H](C)O)C(=O)N[C@@H](CC(=O)O)C(=O)N[C@@H](C)C(=O)N[C@@H](CCCNC(=N)N)C(=O)N[C@@H](C)C(=O)N[C@@H](C)C(=O)N[C@@H](CCC(N)=O)C(=O)N[C@@H](CCC(=O)O)C(=O)N[C@@H](Cc1ccccc1)C(=O)N[C@H](C(=O)N[C@@H](CCCCNC(=O)COCCOCCNC(=O)COCCOCCNC(=O)CC[C@H](NC(=O)CCCCCCCCCCCCCCCCC(=O)O)C(=O)O)C(=O)N[C@@H](Cc1c[nH]c2ccccc12)C(=O)N[C@@H](CC(C)C)C(=O)N[C@@H](CCS(C)(=O)=O)C(=O)N[C@@H](CC(=O)O)C(=O)N[C@H](C(N)=O)[C@@H](C)O)C(C)C` [TP702] (H-H[Aib]QGTFTSDYSKYLDARAAQEFVK([AEEA-AEEA-γGlu-C18 diacid])WL[Met(O2)]DT-NH2; N-terminus assumed), the EC50 was 0.35 nM in experiment [1] (setting [3]), below 5 nM in experiment [1] (setting [4]) and below 5 nM in experiment [2] (setting [5]). The “hGCGR/hGLP1R (hTone)” value in experiment [1] came out at 1.4.
Turning to `CC(C)C[C@H](NC(=O)[C@H](Cc1ccc(O)cc1)NC(=O)[C@H](CCCCN)NC(=O)[C@H](CO)NC(=O)[C@H](Cc1ccc(O)cc1)NC(=O)[C@H](CC(=O)O)NC(=O)[C@H](CO)NC(=O)[C@@H](NC(=O)[C@H](Cc1ccccc1)NC(=O)[C@@H](NC(=O)CNC(=O)[C@H](CCC(N)=O)NC(=O)C(C)(C)NC(=O)[C@@H](N)Cc1c[nH]cn1)[C@@H](C)O)[C@@H](C)O)C(=O)N[C@@H](CC(=O)O)C(=O)N[C@@H](C)C(=O)N[C@@H](CCCNC(=N)N)C(=O)N[C@@H](C)C(=O)N[C@@H](C)C(=O)N[C@@H](CCCCNC(=O)COCCOCCNC(=O)COCCOCCNC(=O)CC[C@H](NC(=O)CCCCCCCCCCCCCCC(=O)O)C(=O)O)C(=O)N[C@@H](CCC(=O)O)C(=O)N[C@@H](Cc1ccccc1)C(=O)N[C@H](C(=O)N[C@@H](CCC(N)=O)C(=O)N[C@@H](Cc1c[nH]c2ccccc12)C(=O)N[C@@H](CC(C)C)C(=O)N[C@@H](CCS(C)(=O)=O)C(=O)N[C@@H](CC(=O)O)C(=O)N[C@H](C(N)=O)[C@@H](C)O)C(C)C` [TP812] (H-H[Aib]QGTFTSDYSKYLDARAAK([AEEA-AEEA-γGlu-C16 diacid])EFVQWL[Met(O2)]DT-NH2), the EC50 in experiment [1] (setting [3]) is 0.2 nM; in experiment [1] (setting [4]) it was below 5 nM; in experiment [2] (setting [5]) it was below 5 nM. In addition, the “hGCGR/hGLP1R (hTone)” value in experiment [1] turned out to be 2.3.
Consider `CC(C)C[C@H](NC(=O)[C@H](Cc1ccc(O)cc1)NC(=O)[C@H](CCCCN)NC(=O)[C@H](CO)NC(=O)[C@H](Cc1ccc(O)cc1)NC(=O)[C@H](CC(=O)O)NC(=O)[C@H](CO)NC(=O)[C@@H](NC(=O)[C@H](Cc1ccccc1)NC(=O)[C@@H](NC(=O)CNC(=O)[C@H](CCC(N)=O)NC(=O)C(C)(C)NC(=O)[C@@H](N)Cc1c[nH]cn1)[C@@H](C)O)[C@@H](C)O)C(=O)N[C@@H](CC(=O)O)C(=O)N[C@@H](C)C(=O)N[C@@H](CCCNC(=N)N)C(=O)N[C@@H](C)C(=O)N[C@@H](C)C(=O)N[C@@H](CCC(N)=O)C(=O)N[C@@H](CC(=O)O)C(=O)N[C@@H](Cc1ccccc1)C(=O)N[C@H](C(=O)N[C@@H](CCCCNC(=O)COCCOCCNC(=O)COCCOCCNC(=O)COCCOCCNC(=O)CC[C@H](NC(=O)CCCCCCCCCCCCCCCCC(=O)O)C(=O)O)C(=O)N[C@@H](Cc1c[nH]c2ccccc12)C(=O)N[C@@H](CC(C)C)C(=O)N[C@@H](CCS(C)(=O)=O)C(=O)N[C@@H](CC(=O)O)C(=O)N[C@H](C(N)=O)[C@@H](C)O)C(C)C` [TP680] (H-H[Aib]QGTFTSDYSKYLDARAAQDFVK([AEEA-AEEA-AEEA-γGlu-C18 diacid])WL[Met(O2)]DT-NH2; N-terminus assumed), for which the “hGCGR/hGLP1R (hTone)” value in experiment [1] was 3.0. Besides, the figures for the EC50 in experiment [1] (setting [4]), in experiment [2] (setting [6]) and in experiment [2] (setting [5]) were below 5 nM, 0.19 nM and below 5 nM, respectively.
As for `CC(C)C[C@H](NC(=O)[C@H](Cc1ccc(O)cc1)NC(=O)[C@H](CCCCN)NC(=O)[C@H](CO)NC(=O)[C@H](Cc1ccc(CNC(=O)COCCOCCNC(=O)COCCOCCNC(=O)CC[C@H](NC(=O)CCCCCCCCCCCCCCCCC(=O)O)C(=O)O)cc1)NC(=O)[C@H](CC(=O)O)NC(=O)[C@H](CO)NC(=O)[C@@H](NC(=O)[C@H](Cc1ccccc1)NC(=O)[C@@H](NC(=O)CNC(=O)[C@H](CCC(N)=O)NC(=O)C(C)(C)NC(=O)[C@@H](N)Cc1c[nH]cn1)[C@@H](C)O)[C@@H](C)O)C(=O)N[C@@H](CC(=O)O)C(=O)N[C@@H](C)C(=O)N[C@@H](CCCNC(=N)N)C(=O)N[C@@H](C)C(=O)N[C@@H](C)C(=O)N[C@@H](CCC(N)=O)C(=O)N[C@@H](CC(=O)O)C(=O)N[C@@H](Cc1ccccc1)C(=O)N[C@H](C(=O)N[C@@H](CCC(N)=O)C(=O)N[C@@](C)(Cc1c[nH]c2ccccc12)C(=O)N[C@@H](CC(C)C)C(=O)N[C@@H](CCS(C)(=O)=O)C(=O)N[C@@H](CC(=O)O)C(=O)N[C@H](C(N)=O)[C@@H](C)O)C(C)C` [TP625] (H-H[Aib]QGTFTSD[Phe(4-CH2NH2)]([AEEA-AEEA-γGlu-C18 diacid])SKYLDARAAQDFVQ[αMeW]L[Met(O2)]DT-NH2; N-terminus assumed), the “hGCGR/hGLP1R (hTone)” value in experiment [1] is reported as 3.4. The EC50 in experiment [1] (setting [4]) and in experiment [2] (setting [5]) was below 5 nM each time.
For `CC(C)C[C@H](NC(=O)[C@H](Cc1ccc(O)cc1)NC(=O)[C@H](CCCCN)NC(=O)[C@H](CO)NC(=O)[C@H](Cc1ccc(CNC(=O)COCCOCCNC(=O)CC[C@H](NC(=O)CCCCCCCCCCCCCCCCC(=O)O)C(=O)O)cc1)NC(=O)[C@H](CC(=O)O)NC(=O)[C@H](CO)NC(=O)[C@@H](NC(=O)[C@H](Cc1ccccc1)NC(=O)[C@@H](NC(=O)CNC(=O)[C@H](CCC(N)=O)NC(=O)C(C)(C)NC(=O)[C@@H](N)Cc1c[nH]cn1)[C@@H](C)O)[C@@H](C)O)C(=O)N[C@@H](CC(=O)O)C(=O)N[C@@H](C)C(=O)N[C@@H](CCCNC(=N)N)C(=O)N[C@@H](C)C(=O)N[C@@H](C)C(=O)N[C@@H](CCC(N)=O)C(=O)N[C@@H](CC(=O)O)C(=O)N[C@@H](Cc1ccccc1)C(=O)N[C@H](C(=O)N[C@@H](CCC(N)=O)C(=O)N[C@@H](Cc1c[nH]c2ccccc12)C(=O)N[C@@H](CC(C)C)C(=O)N[C@@H](CCS(C)(=O)=O)C(=O)N[C@@H](CC(=O)O)C(=O)N[C@H](C(N)=O)[C@@H](C)O)C(C)C` [TP623] (H-H[Aib]QGTFTSD[Phe(4-CH2NH2)]([AEEA-γGlu-C18 diacid])SKYLDARAAQDFVQWL[Met(O2)]DT-NH2), the “hGCGR/hGLP1R (hTone)” value in experiment [1] was determined as 0.5. Further, the EC50 in experiment [1] (setting [4]) and in experiment [2] (setting [5]) was below 5 nM each time.
As for `CC(C)C[C@H](NC(=O)[C@H](CCCCN)NC(=O)[C@H](CCCCN)NC(=O)[C@H](CO)NC(=O)[C@H](Cc1ccc(O)cc1)NC(=O)[C@H](CCC(=O)O)NC(=O)[C@H](CO)NC(=O)[C@@H](NC(=O)[C@H](Cc1ccccc1)NC(=O)[C@@H](NC(=O)CNC(=O)[C@H](CCC(N)=O)NC(=O)C(C)(C)NC(=O)[C@@H](N)Cc1c[nH]cn1)[C@@H](C)O)[C@@H](C)O)C(=O)N[C@@H](CC(=O)O)C(=O)N[C@@H](C)C(=O)N[C@@H](CCCNC(=N)N)C(=O)N[C@@H](C)C(=O)N[C@@H](C)C(=O)N[C@@H](CCC(N)=O)C(=O)N[C@@H](CC(=O)O)C(=O)N[C@@H](Cc1ccccc1)C(=O)N[C@H](C(=O)N[C@@H](CCCCNC(=O)COCCOCCNC(=O)COCCOCCNC(=O)CC[C@H](NC(=O)CCCCCCCCCCCCCCCCC(=O)O)C(=O)O)C(=O)N[C@@H](Cc1c[nH]c2ccccc12)C(=O)N[C@@H](CC(C)C)C(=O)N[C@@H](CCS(C)(=O)=O)C(=O)N[C@@H](CC(=O)O)C(=O)N[C@H](C(N)=O)[C@@H](C)O)C(C)C` [TP699] (H-H[Aib]QGTFTSEYSKKLDARAAQDFVK([AEEA-AEEA-γGlu-C18 diacid])WL[Met(O2)]DT-NH2), the EC50 in experiment [1] (setting [3]) and in experiment [2] (setting [6]) was above 19.8 nM throughout.

Values taken from patent US11566057B2, “Long-acting co-agonists of the glucagon and GLP-1 receptors” (Merck Sharp & Dohme Corp., priority 2017, dated 2023).
